Results from PMC7823780 (Viruses, 2021).
“Also recorded” adds a separate entry of the source. Where two headings read alike, the source gives them in different places.

Assays:
[1] = Cytotoxicity assay, MTT, mock-infected BHK-21; format: cell-based; settings: Syrian hamster, mock-infected BHK-21 cells; mock-infected BHK-21, MTT
EV-D68 = assay: Inhibition of EV-D68-induced cytopathogenicity in HeLa cells (MTT); format: cell-based, human enterovirus D 68 strain Fermon; settings: for EC50: Enterovirus D, EVD68, m.o.i. 0.01
[2] = Cytotoxicity assay, MTT, mock-infected Vero-76; format: cell-based; settings: Cercopithecus aethiops, mock-infected Vero-76 cells, mock-infected Vero-76, MTT; for CC50: value printed without *; for CC50 at 3 days: value marked *, after 3 * days
[3] = Cytotoxicity assay, MTT, mock-infected HeLa; format: cell-based; settings: human, mock-infected HeLa cells
CV-B3 = assay: Plaque reduction assay CV-B3; format: cell-based, human enterovirus B; settings: Enterovirus B
CV-B5 = assay: Plaque reduction assay CV-B5; format: cell-based, human enterovirus B; settings: Enterovirus B
[4] = Cytotoxicity assay, MTT, mock-infected MDBK; format: cell-based; settings: bovine, mock-infected MDBK cells
Echo9 = assay: Plaque reduction assay Echo9; format: cell-based, human enterovirus B; settings: Enterovirus B; 50% reduction of plaque number, LLC-MK2 cells
[5] = Cytotoxicity assay, mock-infected LLC-MK2; format: cell-based; settings: Macaca mulatta, mock-infected LLC-MK2 cells, mock-infected LLC-MK2, MTT
PV-1 = assay: microbe, parasite or virus in culture; format: cell-based; settings: Enterovirus C, read-out: EC50 PV-1
CV-B4 = assay: Plaque reduction assay CV-B4; format: cell-based, human enterovirus B; settings: for EC50: Enterovirus B
EV-A71 [6] = assay: Adsorption assay; format: cell-based, human enterovirus A71 strain BrCr; settings: Vero-76, m.o.i. 1, 20 µM, 2 h at 4 °C
EV-A71 [7] = assay: Apoptosis assay, Annexin V/PI flow cytometry, EV-A71-infected Vero-76; format: cell-based, human enterovirus A71 strain BrCr; settings: 96 h, m.o.i. 0.1
EV-A71 [8] = assay: Time-of-addition assay; format: cell-based, human enterovirus A71 strain BrCr; settings: Vero-76, m.o.i. 1, 20 µM
EV-A71 [9] = assay: Inhibition of EV-A71-induced cytopathogenicity in Vero-76 cells (MTT); format: cell-based, human enterovirus A71 strain BrCr
EV-A71 [10] = assay: Protective effect on EV-A71-infected Vero-76 monolayers (cell morphology); format: cell-based
EV-A71 [11] = assay: Virucidal activity assay; format: cell-based, human enterovirus A71 strain BrCr; settings: 20 µM, 4 or 37 °C, 1 h
EV-A71 [12] = assay: Yield reduction assay; format: cell-based, human enterovirus A71 strain BrCr; settings: Vero-76, m.o.i. 0.1, 100, 20, 4 and 0.8 µM, 96 h
EV-A71 [13] = assay: Penetration assay; format: cell-based, human enterovirus A71 strain BrCr; settings: Enterovirus A, EVA71, 1 h; Vero-76, 100–0.8 µM, 60 min at 37 °C; read-out: EC50 of inhibition of viral penetration
Caco-2 cells = assay: Cell monolayer permeabilization (TEER); format: cell-based, human; settings: Caco-2 monolayers, 20 µM, all time points up to 48 h
EV-A71 [14] = assay: Cell pretreatment assay; format: cell-based, human enterovirus A71 strain BrCr; settings: Vero-76 pre-incubated 2 h with 20 µM, then infected
[15] = CVB3, 50% reduction of plaque number, read-out: EC50 CV-B3
[16] = CVB5, 50% reduction of plaque number, read-out: EC50 CV-B5
[17] = CVB4, 50% reduction of plaque number, read-out: EC50 CV-B4

Compound | CC50 [1] [µM] | EC50 (EV-D68) [µM] | CC50 [2] [µM] | CC50 at 4 days [3] [µM] | EC50 (CV-B3; [15]) [µM] | EC50 (CV-B5; [16]) [µM] | CC50 [4] [µM] | EC50 (Echo9) [µM] | CC50 at 5 days [5] [µM] | EC50 (PV-1) [µM] | EC50 (CV-B4; [17]) [µM] | other results
CC(C)(C)c1ccc(-c2nc3cc(F)ccc3[nH]2)cc1 [Compound 4b, 2-(4-(Tert-Butyl)phenyl)-5-Fluoro-1H-Benzo[d]imidazole] | > 100 | > 100 | > 100 | > 100 | > 100 | > 100 | > 100 | > 100 | > 100 | 20 | > 100 | 
CC(C)c1ccc(-c2nc3cc(Cl)c(Cl)cc3[nH]2)cc1 [Compound 3a, 5,6-Dichloro-2-(4-Isopropylphenyl)-1H-Benzo[d]imidazole] | 8 | > 8 | 25.5 | 8 |  |  | 2.5 | > 7 | 7 | > 25.5 |  | CC50 at 3 days [2]: 8 µM; EC50 (CV-B3; CVB3, read-out: EC50 CV-B3): > 25.5 µM; EC50 (CV-B5; CVB5, read-out: EC50 CV-B5): > 25.5 µM; EC50 (CV-B4; CVB4, read-out: EC50 CV-B4): > 25.5 µM
CC(C)(C)c1ccc(-c2nc3cc(F)c(F)cc3[nH]2)cc1 [Compound 5b, 2-(4-(Tert-Butyl)phenyl)-5,6-Difluoro-1H-Benzo[d]imidazole] | > 100 | 4 | > 100 | > 100 | > 100 | > 100 | > 100 | > 100 | > 100 | 10 | > 100 | 
CC(C)c1ccc(-c2nc3cc(F)ccc3[nH]2)cc1 [Compound 4a, 5-Fluoro-2-(4-Isopropylphenyl)-1H-Benzo[d]imidazole] | > 100 | > 100 | > 100 | > 100 | > 100 | > 100 | > 100 | > 29.5 | 29.5 | ≥ 100 | > 100 | 
CC(C)(C)c1ccc(-c2nc3cc(Cl)ccc3[nH]2)cc1 [Compound 2b, 2-(4-(Tert-Butyl)phenyl)-5-Chloro-1H-Benzo[d]imidazole] | > 100 | > 100 | > 100 | 100 | 33 | 10 | > 100 | 4 | 12 | 6 | 25.5 | virus titer in adsorption assay (EV-A71 [6]): detectable reduction in the virus titer; viability at 20 µM (EV-A71 [7]; Enterovirus A, EVA71, Vero-76, 20 µM, read-out: viability of EV-A71-infected cells): 90%; viability at 80 µM (EV-A71 [7]; Enterovirus A, EVA71, Vero-76, 80 µM, read-out: viability of EV-A71-infected cells): 80%; necrotic cells among EV-A71-infected cells (EV-A71 [7]; Vero-76, 20 µM): 10%; necrotic cells among EV-A71-infected cells (EV-A71 [7]; Vero-76, 80 µM): 20%; effect by time of addition (EV-A71 [8]): greatest effect when added along with the virus; EC50 (EV-A71 [9]; 50% protection of Vero-76 cells from EV-A71-induced cytopathogenicity, MTT, m.o.i. 0.01): 3.5 µM; selectivity index (EV-A71 [9]; EV-A71, Vero-76): > 30; protection of Vero-76 monolayer from EV-A71 infection (morphology) (EV-A71 [10]; 20 µM and 80 µM, m.o.i. 0.1): protect cells from EV-A71 infection; cytotoxic effect on Vero-76 monolayer (morphology) (EV-A71 [10]; up to a concentration of 80 µM): no evident cytotoxic effects; virucidal effect on EV-A71 infectivity (EV-A71 [11]): failed to affect the EV-A71 infectivity; reduction in EV-A71 titer (yield reduction) (EV-A71 [12]): dose-dependent reduction; EC50 (EV-A71 [13]): 6.2 µM; TEER values versus control (Caco-2 cells): not significantly different from control values; also recorded: did not induce any significant change in permeability; inhibition after cell pre-incubation (EV-A71 [14]): no inhibition
CC(C)c1ccc(-c2nc3ccccc3[nH]2)cc1 [Compound 1a, 2-(4-Isopropylphenyl)-1H-Benzo[d]imidazole] | 36 | > 9 | 60 | 9 | > 60 | > 60 | 65 | > 6 | 6 | 11.5 | > 60 | CC50 at 3 days [2]: 24 µM
CC(C)c1ccc(-c2nc3cc(Cl)ccc3[nH]2)cc1 [Compound 2a, 5-Chloro-2-(4-Isopropylphenyl)-1H-Benzo[d]imidazole] | > 100 | > 100 | > 100 | 100 | 17 | 10 | 80 | 8 | > 100 | 9 | ≥ 100 | EC50 CV-B4 (CV-B4; 50% reduction of plaque number): No activity
C[C@@]1(O)[C@H](O)[C@@H](CO)O[C@H]1n1ccc(N)nc1=O [NM 107, 2′-C-methylcytidine, reference compound] |  |  | > 100 |  |  |  |  |  |  | 6 | 29 | 
CC(C)(C)c1ccc(-c2nc3ccccc3[nH]2)cc1 [Compound 1b, 2-(4-(Tert-Butyl)phenyl)-1H-Benzo[d]imidazole] | 20 | > 9 | 46 | 9 | > 46 | 7 | 9 | > 6.5 | 6.5 | 9 | > 46 | CC50 at 3 days [2]: 40 µM
CC(C)c1ccc(-c2nc3cc(F)c(F)cc3[nH]2)cc1 [Compound 5a, 5,6-Difluoro-2-(4-Isopropylphenyl)-1H-Benzo[d]imidazole] | > 100 | > 100 | > 100 | > 100 | > 100 | > 100 | > 100 | > 100 | 100 | 12 | > 100 | EC50 EV-D68 (EV-D68; m.o.i. 0.01): not active
CCOC(=O)/C=C/[C@H](C[C@@H]1CCNC1=O)NC(=O)[C@@H](CC(=O)[C@@H](NC(=O)c1cc(C)on1)C(C)C)Cc1ccc(F)cc1 [Rup, Rupintrivir, reference compound] |  |  | > 100 |  |  |  |  |  |  | 0.07 |  | 
Cc1cc(CCCOc2c(C)cc(-c3noc(C(F)(F)F)n3)cc2C)on1 [Plc, Pleconaril, reference compound] |  | 0.3 | > 100 |  | 2 ± 0.005 | 2 ± 0.5 |  | 0.1 | > 100 |  |  | 
CC(C)(C)c1ccc(-c2nc3cc(Cl)c(Cl)cc3[nH]2)cc1 [Compound 3b, 2-(4-(Tert-Butyl)phenyl)-5,6-Dichloro-1H-Benzo[d]imidazole] | 9 | > 6.4 | 9 | 6.4 | > 9 | 2 | 7 | > 12 | 12 |  | > 9 | 
